Results: ChEMBL document CHEMBL1201862, “PubChem BioAssay data set” (2004)
The source made the active and inactive calls.

Tests used:
[1] = target: T1, Heat shock factor protein 1 (Mus musculus, UniProt P38532); test: enhancement of HSF1-driven luciferase signal – cell-based, NIH3T3, luminescence, dose retest, confirmation (AID 435004); format: functional;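 note: stress induced by proteasome inhibitor MG132 added 30 min after compound; luciferase reporter driven by HSF1 response element in NIH3T3 cells; actives raise luminescence as potentiators of the MG132 stress response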
T1 sequence (P38532 whole entry): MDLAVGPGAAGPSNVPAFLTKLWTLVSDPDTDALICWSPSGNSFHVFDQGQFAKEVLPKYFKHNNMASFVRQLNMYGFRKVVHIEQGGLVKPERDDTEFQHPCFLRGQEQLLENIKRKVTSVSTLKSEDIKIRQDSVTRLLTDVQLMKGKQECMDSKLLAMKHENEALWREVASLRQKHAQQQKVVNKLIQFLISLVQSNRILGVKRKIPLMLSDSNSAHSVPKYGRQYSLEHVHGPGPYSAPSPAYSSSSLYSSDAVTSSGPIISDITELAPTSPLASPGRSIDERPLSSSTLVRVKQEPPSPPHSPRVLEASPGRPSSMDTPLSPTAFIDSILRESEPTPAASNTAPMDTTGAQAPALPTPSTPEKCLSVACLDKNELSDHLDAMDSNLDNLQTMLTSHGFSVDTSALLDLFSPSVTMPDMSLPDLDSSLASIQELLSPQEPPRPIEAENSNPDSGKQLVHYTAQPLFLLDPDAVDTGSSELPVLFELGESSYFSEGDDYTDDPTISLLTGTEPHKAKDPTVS

[2] = target: T2, Replicative DNA helicase DnaB (Mycobacterium tuberculosis, UniProt P9WMR3); test: DnaB intein splicing inhibitors, dose response, biochemical, cell-free fluorescence (AID 449749); format: functional
T2 sequence (P9WMR3 whole entry): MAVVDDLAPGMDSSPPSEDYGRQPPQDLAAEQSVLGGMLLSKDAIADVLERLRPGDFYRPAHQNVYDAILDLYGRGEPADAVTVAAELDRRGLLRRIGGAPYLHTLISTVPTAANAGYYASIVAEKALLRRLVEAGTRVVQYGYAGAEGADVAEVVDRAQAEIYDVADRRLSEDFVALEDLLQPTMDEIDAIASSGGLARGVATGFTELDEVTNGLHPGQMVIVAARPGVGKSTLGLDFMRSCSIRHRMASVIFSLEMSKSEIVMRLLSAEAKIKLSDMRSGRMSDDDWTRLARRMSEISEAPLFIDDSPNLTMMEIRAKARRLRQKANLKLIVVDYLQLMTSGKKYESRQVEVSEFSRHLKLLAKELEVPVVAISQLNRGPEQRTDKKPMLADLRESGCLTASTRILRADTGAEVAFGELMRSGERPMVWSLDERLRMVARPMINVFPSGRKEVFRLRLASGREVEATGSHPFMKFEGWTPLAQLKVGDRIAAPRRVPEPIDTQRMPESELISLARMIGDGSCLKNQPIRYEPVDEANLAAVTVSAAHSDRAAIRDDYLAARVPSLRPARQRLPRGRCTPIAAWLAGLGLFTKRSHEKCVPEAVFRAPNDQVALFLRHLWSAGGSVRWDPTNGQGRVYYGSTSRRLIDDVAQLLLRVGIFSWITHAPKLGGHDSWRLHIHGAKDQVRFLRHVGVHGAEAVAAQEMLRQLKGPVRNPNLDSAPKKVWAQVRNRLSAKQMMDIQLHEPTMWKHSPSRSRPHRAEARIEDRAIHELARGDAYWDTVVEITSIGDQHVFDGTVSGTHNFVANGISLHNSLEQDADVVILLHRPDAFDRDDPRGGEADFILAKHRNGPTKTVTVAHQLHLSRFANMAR

[3] = target: G-protein coupled receptor 55 (Homo sapiens, UniProt Q9Y2T6); test: inhibition of LPI-stimulated GPR55 beta-arrestin translocation – imaging, U2OS, beta-arrestin-GFP, LPI agonist, primary screen (AID 2013); format: functional;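 note: antagonist potency measured as reduced agonist-driven arrestin aggregation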
Chain of G-protein coupled receptor 55 (Q9Y2T6 whole entry): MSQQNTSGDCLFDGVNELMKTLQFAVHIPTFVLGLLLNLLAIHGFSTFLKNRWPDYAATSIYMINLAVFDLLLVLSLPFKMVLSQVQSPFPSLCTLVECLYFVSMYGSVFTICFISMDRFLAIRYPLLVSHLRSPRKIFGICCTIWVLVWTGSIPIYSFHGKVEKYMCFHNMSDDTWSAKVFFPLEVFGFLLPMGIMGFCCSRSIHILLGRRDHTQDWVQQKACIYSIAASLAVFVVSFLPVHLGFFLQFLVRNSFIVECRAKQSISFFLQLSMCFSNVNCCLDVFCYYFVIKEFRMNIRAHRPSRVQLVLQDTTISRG

Protein RecA = target: T3, Protein RecA (Mycobacterium tuberculosis, UniProt P9WHJ3); test: Fluorescence Cell-Free Homogeneous Dose Retest to Identify Inhibitors of RecA-Intein Splicing Activity. [Related pubchem assays (depositor defined):AID2097, AID2223, AID489010, AID492950]; format: functional
T3 sequence (P9WHJ3 whole entry): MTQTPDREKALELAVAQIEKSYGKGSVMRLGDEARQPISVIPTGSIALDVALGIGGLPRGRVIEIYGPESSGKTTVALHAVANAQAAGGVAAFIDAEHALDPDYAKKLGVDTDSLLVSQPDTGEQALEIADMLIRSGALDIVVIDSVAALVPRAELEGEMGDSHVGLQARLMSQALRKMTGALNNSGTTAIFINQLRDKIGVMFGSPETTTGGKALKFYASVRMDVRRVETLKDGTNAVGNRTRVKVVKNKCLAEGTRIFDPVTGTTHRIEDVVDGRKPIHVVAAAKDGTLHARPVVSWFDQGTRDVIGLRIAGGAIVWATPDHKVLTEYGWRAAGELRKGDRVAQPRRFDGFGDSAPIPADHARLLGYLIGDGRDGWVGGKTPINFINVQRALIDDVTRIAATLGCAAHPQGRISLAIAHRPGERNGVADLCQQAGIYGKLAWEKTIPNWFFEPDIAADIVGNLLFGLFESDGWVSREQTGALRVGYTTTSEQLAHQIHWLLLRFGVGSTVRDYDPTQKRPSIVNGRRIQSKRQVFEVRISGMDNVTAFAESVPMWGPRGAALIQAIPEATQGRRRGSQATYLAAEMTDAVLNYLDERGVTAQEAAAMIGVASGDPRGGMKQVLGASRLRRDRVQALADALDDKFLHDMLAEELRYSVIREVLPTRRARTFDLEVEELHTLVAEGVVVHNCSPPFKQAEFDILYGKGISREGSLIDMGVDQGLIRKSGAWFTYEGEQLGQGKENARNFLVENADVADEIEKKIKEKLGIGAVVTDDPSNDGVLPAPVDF

[4] = target: T4, Sentrin-specific protease 7 (Homo sapiens, UniProt Q9BQF6); format: functional;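 note: Luminescence-based dose-response confirmation of ultra-high-throughput screening hits, measuring inhibition of SENP7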
T4 sequence (Q9BQF6 whole entry): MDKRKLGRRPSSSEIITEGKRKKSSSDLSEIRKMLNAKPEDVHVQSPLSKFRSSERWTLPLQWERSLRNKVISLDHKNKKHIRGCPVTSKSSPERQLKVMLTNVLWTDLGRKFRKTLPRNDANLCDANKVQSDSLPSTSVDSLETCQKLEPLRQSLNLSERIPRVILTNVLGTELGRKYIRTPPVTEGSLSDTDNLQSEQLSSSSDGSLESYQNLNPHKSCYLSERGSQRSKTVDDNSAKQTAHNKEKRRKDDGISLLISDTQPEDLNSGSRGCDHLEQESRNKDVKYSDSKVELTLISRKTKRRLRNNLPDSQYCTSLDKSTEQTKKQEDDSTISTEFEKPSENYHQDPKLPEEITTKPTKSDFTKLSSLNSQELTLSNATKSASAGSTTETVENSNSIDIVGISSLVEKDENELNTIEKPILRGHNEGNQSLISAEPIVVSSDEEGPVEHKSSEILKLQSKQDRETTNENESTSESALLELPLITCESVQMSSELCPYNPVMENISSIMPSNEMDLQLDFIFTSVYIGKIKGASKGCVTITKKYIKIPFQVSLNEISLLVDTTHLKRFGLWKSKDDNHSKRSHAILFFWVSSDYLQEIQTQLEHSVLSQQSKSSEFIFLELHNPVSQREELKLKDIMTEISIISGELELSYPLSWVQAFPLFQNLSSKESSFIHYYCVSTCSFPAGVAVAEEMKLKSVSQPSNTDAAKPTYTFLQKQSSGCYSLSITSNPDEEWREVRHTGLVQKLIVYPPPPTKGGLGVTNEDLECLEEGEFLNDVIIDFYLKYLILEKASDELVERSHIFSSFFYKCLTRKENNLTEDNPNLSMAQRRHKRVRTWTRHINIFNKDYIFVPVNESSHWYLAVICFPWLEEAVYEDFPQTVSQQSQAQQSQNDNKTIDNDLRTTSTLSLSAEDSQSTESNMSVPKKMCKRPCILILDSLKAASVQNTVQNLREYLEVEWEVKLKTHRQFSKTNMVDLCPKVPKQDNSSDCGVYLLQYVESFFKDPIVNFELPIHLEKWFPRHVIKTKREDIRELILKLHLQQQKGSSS

Caspase-3 = target: T5, Caspase-3 (Homo sapiens, UniProt P42574); format: functional;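 note: Dose-response selectivity test against caspase-3 for candidate inhibitors of sentrin-specific proteases (SENPs)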
T5 sequence (P42574 whole entry): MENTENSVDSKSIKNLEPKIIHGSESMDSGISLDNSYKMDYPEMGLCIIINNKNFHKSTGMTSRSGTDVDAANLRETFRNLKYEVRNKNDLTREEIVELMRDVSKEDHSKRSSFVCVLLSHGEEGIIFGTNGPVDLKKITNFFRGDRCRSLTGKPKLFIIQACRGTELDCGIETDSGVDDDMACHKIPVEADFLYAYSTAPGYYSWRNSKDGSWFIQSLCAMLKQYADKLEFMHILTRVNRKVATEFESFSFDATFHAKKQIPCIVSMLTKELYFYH

cells = format: functional, cell-based
HEK293 = test: EBV LMP1 TES2 canonical NF-kB signalling blockers – cell-based, HEK293, luciferase, cherry-pick, dose response (AID 588343); format: functional; settings: Homo sapiens
[5] = target: T6, Sentrin-specific protease 8 (Homo sapiens, UniProt Q96LD8); format: functional;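 note: luminescence read-out of SENP8 inhibition, dose-response confirmation following an ultra-high-throughput screen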
T6 sequence (Q96LD8 whole entry): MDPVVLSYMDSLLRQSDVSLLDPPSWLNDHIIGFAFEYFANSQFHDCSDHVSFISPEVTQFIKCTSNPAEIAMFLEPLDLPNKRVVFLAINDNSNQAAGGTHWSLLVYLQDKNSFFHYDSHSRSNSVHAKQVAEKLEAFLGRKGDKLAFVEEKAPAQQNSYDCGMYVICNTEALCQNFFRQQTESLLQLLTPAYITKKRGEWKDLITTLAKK

[6] = target: T7, Sentrin-specific protease 6 (Homo sapiens, UniProt Q9GZR1); format: functional;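 note: Luminescence-based dose-response confirmatory assay of SENP6 inhibition, following up an ultra-high-throughput screen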
T7 sequence (Q9GZR1 whole entry): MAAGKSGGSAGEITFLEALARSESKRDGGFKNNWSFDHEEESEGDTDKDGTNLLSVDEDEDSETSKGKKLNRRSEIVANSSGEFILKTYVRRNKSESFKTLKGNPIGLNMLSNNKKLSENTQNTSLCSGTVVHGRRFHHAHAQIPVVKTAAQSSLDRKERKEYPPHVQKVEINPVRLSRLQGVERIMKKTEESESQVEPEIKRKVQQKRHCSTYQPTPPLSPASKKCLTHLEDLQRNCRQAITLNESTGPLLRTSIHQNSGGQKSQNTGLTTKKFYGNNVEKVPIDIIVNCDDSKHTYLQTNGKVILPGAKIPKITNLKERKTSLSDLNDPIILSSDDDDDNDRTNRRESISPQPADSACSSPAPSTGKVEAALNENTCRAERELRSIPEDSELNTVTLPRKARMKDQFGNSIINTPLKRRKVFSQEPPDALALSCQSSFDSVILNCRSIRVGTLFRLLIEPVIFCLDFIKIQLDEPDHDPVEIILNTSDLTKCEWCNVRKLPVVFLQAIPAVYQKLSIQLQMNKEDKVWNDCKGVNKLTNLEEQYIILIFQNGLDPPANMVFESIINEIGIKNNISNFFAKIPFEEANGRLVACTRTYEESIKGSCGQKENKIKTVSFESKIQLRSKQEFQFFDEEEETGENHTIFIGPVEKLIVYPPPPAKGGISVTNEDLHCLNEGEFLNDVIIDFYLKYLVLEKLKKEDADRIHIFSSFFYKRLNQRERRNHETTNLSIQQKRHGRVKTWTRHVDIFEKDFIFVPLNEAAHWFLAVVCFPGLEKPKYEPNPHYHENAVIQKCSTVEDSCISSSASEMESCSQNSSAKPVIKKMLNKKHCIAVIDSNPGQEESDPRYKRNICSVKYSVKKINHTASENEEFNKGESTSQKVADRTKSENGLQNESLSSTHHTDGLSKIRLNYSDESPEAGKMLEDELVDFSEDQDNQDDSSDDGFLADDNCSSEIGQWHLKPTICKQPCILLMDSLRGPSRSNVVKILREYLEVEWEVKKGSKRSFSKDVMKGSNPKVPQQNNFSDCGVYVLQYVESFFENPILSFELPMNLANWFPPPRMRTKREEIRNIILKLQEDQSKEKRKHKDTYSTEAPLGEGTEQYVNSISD

[7] = target: Nuclear receptor subfamily 0 group B member 1 (Homo sapiens, UniProt P51843); format: functional, cell-based;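 note: HEK293T cells transfected with SF-1 and DAX-1 plus StAR promoter luciferase reporter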
Chain of Nuclear receptor subfamily 0 group B member 1 (P51843 whole entry): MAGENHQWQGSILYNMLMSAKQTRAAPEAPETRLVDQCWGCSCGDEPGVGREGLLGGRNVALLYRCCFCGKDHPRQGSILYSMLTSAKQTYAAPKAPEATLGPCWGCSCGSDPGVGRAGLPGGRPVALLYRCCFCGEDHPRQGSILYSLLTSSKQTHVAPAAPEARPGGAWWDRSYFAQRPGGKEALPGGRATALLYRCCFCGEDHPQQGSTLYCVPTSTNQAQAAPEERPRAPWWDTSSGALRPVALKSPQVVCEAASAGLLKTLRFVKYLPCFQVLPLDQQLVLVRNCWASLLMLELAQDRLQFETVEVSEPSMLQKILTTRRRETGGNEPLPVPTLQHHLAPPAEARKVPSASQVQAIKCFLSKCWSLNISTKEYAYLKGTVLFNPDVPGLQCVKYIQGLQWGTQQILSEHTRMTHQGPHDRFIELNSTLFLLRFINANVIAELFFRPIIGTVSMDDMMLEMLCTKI

[8] = target: T8, Tyrosine-protein phosphatase non-receptor type 7 (Homo sapiens, UniProt P35236); test: SAR analysis of chemical inhibitors of HePTP using a Fluorescent assay - Set 2. [Related pubchem assays (depositor defined):AID1059, AID1077, AID1661, AID2085, AID521]; format: functional
T8 sequence (P35236 whole entry): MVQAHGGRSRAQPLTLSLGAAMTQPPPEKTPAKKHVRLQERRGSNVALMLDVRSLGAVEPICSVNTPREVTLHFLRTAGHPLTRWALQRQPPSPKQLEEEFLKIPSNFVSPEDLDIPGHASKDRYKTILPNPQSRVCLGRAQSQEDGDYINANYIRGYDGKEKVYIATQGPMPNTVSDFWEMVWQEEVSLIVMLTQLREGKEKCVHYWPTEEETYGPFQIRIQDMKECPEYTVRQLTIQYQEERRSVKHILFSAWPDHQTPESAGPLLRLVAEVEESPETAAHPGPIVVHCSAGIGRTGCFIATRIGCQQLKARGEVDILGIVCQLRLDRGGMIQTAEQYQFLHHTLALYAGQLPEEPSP

[9] = target: Dual specificity protein phosphatase 3 (Homo sapiens, UniProt P51452); test: SAR VHR1 Fluorescent Assay for In Vitro dose response studies Set 2. [Related pubchem assays (depositor defined):AID1654, AID1661, AID1878]; format: functional
Chain of Dual specificity protein phosphatase 3 (P51452 whole entry): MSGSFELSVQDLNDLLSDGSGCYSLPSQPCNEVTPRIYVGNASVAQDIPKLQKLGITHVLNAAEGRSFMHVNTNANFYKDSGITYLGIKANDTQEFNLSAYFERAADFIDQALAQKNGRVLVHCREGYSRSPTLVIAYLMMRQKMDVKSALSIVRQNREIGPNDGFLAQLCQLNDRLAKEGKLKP

[10] = target: Glyceraldehyde-3-phosphate dehydrogenase (Homo sapiens, UniProt P04406)
Chain of Glyceraldehyde-3-phosphate dehydrogenase (P04406 whole entry): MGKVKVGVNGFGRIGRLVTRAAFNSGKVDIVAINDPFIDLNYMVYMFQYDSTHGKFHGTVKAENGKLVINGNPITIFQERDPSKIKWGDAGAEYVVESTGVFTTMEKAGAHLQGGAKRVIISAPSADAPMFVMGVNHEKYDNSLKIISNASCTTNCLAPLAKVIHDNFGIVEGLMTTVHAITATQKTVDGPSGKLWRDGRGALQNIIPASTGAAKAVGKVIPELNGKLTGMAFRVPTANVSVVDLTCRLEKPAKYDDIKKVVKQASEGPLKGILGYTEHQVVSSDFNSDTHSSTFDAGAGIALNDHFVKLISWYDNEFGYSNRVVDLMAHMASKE

[11] = target: Alkaline phosphatase, placental type (Homo sapiens, UniProt P05187); test: human placental alkaline phosphatase inhibition – biochemical, luminescence, confirmation (AID 1512); format: functional
Chain of Alkaline phosphatase, placental type (P05187 whole entry): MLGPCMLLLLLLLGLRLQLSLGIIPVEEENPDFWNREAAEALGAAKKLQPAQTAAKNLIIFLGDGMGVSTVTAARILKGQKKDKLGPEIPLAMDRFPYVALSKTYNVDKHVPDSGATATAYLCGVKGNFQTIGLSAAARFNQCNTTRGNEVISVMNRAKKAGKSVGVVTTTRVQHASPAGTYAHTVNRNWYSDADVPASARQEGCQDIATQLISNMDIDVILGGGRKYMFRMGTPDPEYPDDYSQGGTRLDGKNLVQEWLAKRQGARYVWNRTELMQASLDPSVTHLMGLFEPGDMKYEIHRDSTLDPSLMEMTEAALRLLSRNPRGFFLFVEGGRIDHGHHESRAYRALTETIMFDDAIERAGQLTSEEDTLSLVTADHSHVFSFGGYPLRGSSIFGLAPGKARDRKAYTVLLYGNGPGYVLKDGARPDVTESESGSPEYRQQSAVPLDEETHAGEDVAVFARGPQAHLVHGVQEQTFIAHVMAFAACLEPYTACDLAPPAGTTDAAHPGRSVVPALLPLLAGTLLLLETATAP

In the case of `Clc1ncnc2scc(C3COc4ccccc4O3)c12` (stereo not given), the EC50 [1] is reported as 21.4 µM (active), the AC50 [2] is reported as 7.16 µM (active) and the IC50 [3] is reported as 3.38 µM (active). For the same compound, the EC50 (Protein RecA) was 3.97 µM (active).

In the case of `Cc1ccn2c(c1)nc(=S)n2C(=O)c1ccccc1`, the IC50 [4] is reported as 4.09 µM (active), the IC50 (Caspase-3) is reported as 46.5 µM (active) and the IC50 (cells) is reported as > 67.5 µM (inactive). For the same compound, the AC50 (HEK293) was 0.814 µM (active), the IC50 [5] was 94.9 µM (active) and the IC50 [6] was 72.3 µM (active). For the same compound, the IC50 [7] was > 0.0926 µM (active).

For `O=S(=O)(c1ccc(NC(=S)N2CCN(Cc3ccc4c(c3)OCO4)CC2)cc1)N1CCOCC1`, the IC50 [8] was 79.6 µM (active) and the IC50 [9] was > 100 µM (inactive).

With `O=C(c1cc(-c2ccc(Cl)cc2Cl)n[nH]1)N1CCCCCC1` the IC50 [10] was > 100 µM (not active) and the IC50 [11] was > 100 µM (inactive).
